# Laboratory results published in patent US10188634B2, “3-(3H-imidazo[4,5-C]pyridin-2-yl)-1 H-pyrazolo[4,3-B]pyridines and therapeutic uses thereof” (Samumed, LLC, priority 2015, dated 2019).
# Key:
# [1] = test system: primary human mesenchymal stem cells (hMSCs); test: Induction of chondrogenesis in primary human mesenchymal stem cells (hMSCs), nodule imaging with Rhodamine B / Nile Red; format: cell-based; conditions: for Emax: hMSCs chondrogenesis, TGF-β3 (10 ng/mL) as positive control, read-out: Max. Activity as % TGF-β3 activity; for EC50: hMSCs, concentration required to induce 50% levels of chondrogenesis vs TGF-β3 positive control, read-out: Conc (nM) of 50% TGF-β3 activity
# Method in brief: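 Passage 3-6 hMSCs cultured 6 days at 37° C in incomplete chondrogenic induction medium with compound (2700-10 nM, 96-well; 5000-2.2 nM, 384-well; 0.03% DMSO), TGF-β3 10 ng/mL as positive control. Fixed nodules stained with Rhodamine B/Nile Red, imaged at 531/625 nm; nodule area normalized to DMSO wells for EC50, maximum activity and dose at maximum.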
# [2] = test system: IL-6 in THP-1 cells; test: Inhibition of IL-6 in LPS-stimulated THP-1 human monocyte cells (HTRF); format: cell-based; conditions: IL-6 HTRF; for EC50: 500 ng/mL LPS, 22 hours; for inhibition at 10 µM: LPS, read-out: percent inhibition in brackets (given for EC50 >10 μM)
# Method in brief: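 THP-1 cells, serum-reduced (1% FBS) for 24 h, were exposed to compound (1:3, 10-point series from 10 μM; 0.1% DMSO) for 2 h, then 500 ng/mL LPS for 22 h at 37° C. Secreted IL-6 measured by HTRF (665/620 ratio), normalised to DMSO; EC50 by four-parameter fit, else % inhibition at 10 μM.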
SMILES,EC50 [1] [nM],EC50 [2] [nM],Emax [1] [%],inhibition at 10 µM [2] [%]
"CN(C)c1cncc(-c2ccc3[nH]nc(-c4nc5c(-c6cccc(F)c6)cncc5[nH]4)c3n2)c1 [Compound 7, 5-(3-(7-(3-Fluorophenyl)-3H-imidazo[4,5-c]pyridin-2-yl)-1H-pyrazolo[4,3-b]pyridin-5-yl)-N,N-dimethylpyridin-3-amine]",10,341,154,
"CN(C)Cc1cncc(-c2ccc3[nH]nc(-c4nc5c(-c6cccc(F)c6)cncc5[nH]4)c3n2)c1 [Compound 13, 1-(5-(3-(7-(3-Fluorophenyl)-3H-imidazo[4,5-c]pyridin-2-yl)-1H-pyrazolo[4,3-b]pyridin-5-yl)pyridin-3-yl)-N,N-dimethylmethanamine]",,1540,17,
"O=C(Nc1cncc(-c2ccc3[nH]nc(-c4nc5c(-c6cccc(F)c6)cncc5[nH]4)c3n2)c1)C1CC1 [Compound 20, N-(5-(3-(7-(3-Fluorophenyl)-3H-imidazo[4,5-c]pyridin-2-yl)-1H-pyrazolo[4,3-b]pyridin-5-yl)pyridin-3-yl)cyclopropanecarboxamide]",,> 10000,,19.6
"Fc1cccc(-c2cncc3[nH]c(-c4n[nH]c5ccc(-c6cncc(CN7CCC(F)(F)C7)c6)nc45)nc23)c1 [Compound 26, 5-(5-((3,3-Difluoropyrrolidin-1-yl)methyl)pyridin-3-yl)-3-(7-(3-fluorophenyl)-3H-imidazo[4,5-c]pyridin-2-yl)-1H-pyrazolo[4,3-b]pyridine]",,> 10000,47,21
"CC(C)(C)C(=O)Nc1cncc(-c2ccc3[nH]nc(-c4nc5c(-c6ccc(F)cc6)cncc5[nH]4)c3n2)c1 [Compound 36, N-(5-(3-(7-(4-Fluorophenyl)-3H-imidazo[4,5-c]pyridin-2-yl)-1H-pyrazolo[4,3-b]pyridin-5-yl)pyridin-3-yl)pivalamide]",,> 10000,42,35.9
"Fc1ccc(-c2cncc3[nH]c(-c4n[nH]c5ccc(-c6cncc(CN7CCCC7)c6)nc45)nc23)cc1 [Compound 42, 3-(7-(4-Fluorophenyl)-3H-imidazo[4,5-c]pyrid-2-yl)-5-(5-(pyrrolidin-1-ylmethyl)pyridin-3-yl)-1H-pyrazolo[4,3-b]pyridine]",,> 10000,15,42
"Fc1ccccc1-c1cncc2[nH]c(-c3n[nH]c4ccc(-c5ccccn5)nc34)nc12 [Compound 84, 3-(7-(2-Fluorophenyl)-3H-imidazo[4,5-c]pyridin-2-yl)-5-(pyridin-2-yl)-1H-pyrazolo[4,3-b]pyridine]",,> 10000,,46.8
"CC(C)Nc1cncc(-c2ccc3[nH]nc(-c4nc5c(-c6cccnc6)cncc5[nH]4)c3n2)c1 [Compound 96, N-Isopropyl-5-(3-(7-(pyridin-3-yl)-3H-imidazo[4,5-c]pyridin-2-yl)-1H-pyrazolo[4,3-b]pyridin-5-yl)pyridin-3-amine]",30,1750,65,
"Cc1cn(-c2cncc3[nH]c(-c4n[nH]c5ccc(C6=CCNCC6)nc45)nc23)cn1 [Compound 590, 3-(7-(4-Methyl-1H-imidazol-1-yl)-3H-imidazo[4,5-c]pyridin-2-yl)-5-(1,2,3,6-tetrahydropyridin-4-yl)-1H-pyrazolo[4,3-b]pyridine]",,> 10000,,11.5

# Continued, in another order:
EC50 [1] [nM],EC50 [2] [nM],SMILES,Emax [1] [%],inhibition at 10 µM [2] [%]
100,122,"CN(C)c1cncc(-c2ccc3[nH]nc(-c4nc5c(N6CCCCC6)cncc5[nH]4)c3n2)c1 [Compound 175, N,N-dimethyl-5-(3-(7-(piperidin-1-yl)-3H-imidazo[4,5-c]pyridin-2-yl)-1H-pyrazolo[4,3-b]pyridin-5-yl)pyridin-3-amine]",67,
,> 10000,"Cc1ccncc1-c1ccc2[nH]nc(-c3nc4c(-c5ccsc5)cncc4[nH]3)c2n1 [Compound 257, 5-(4-Methylpyridin-3-yl)-3-(7-(thiophen-3-yl)-3H-imidazo[4,5-c]pyridin-2-yl)-1H-pyrazolo[4,3-b]pyridine]",24,11.5
21,> 10000,"CCCC(=O)Nc1cncc(-c2ccc3[nH]nc(-c4nc5c(-c6ccsc6)cncc5[nH]4)c3n2)c1 [Compound 269, N-(5-(3-(7-(Thiophen-3-yl)-3H-imidazo[4,5-c]pyridin-2-yl)-1H-pyrazolo[4,3-b]pyridin-5-yl)pyridin-3-yl)butyramide]",58,45.9
,> 10000,"c1cc(-c2cncc3[nH]c(-c4n[nH]c5ccc(-c6cncc(CNCC7CCCC7)c6)nc45)nc23)co1 [Compound 305, 1-Cyclopentyl-N-((5-(3-(7-(furan-3-yl)-3H-imidazo[4,5-c]pyridin-2-yl)-1H-pyrazolo[4,3-b]pyridin-5-yl)pyridin-3-yl)methyl)methanamine]",,24.5
,> 10000,"O=C(CC1CCNCC1)Nc1cncc(-c2ccc3[nH]nc(-c4nc5c(-c6ccccn6)cncc5[nH]4)c3n2)c1 [Compound 565, 2-(Piperidin-4-yl)-N-(5-(3-(7-(pyridin-2-yl)-3H-imidazo[4,5-c]pyridin-2-yl)-1H-pyrazolo[4,3-b]pyridin-5-yl)pyridin-3-yl)acetamide]",,34.7
,1630,"c1ncc(-c2ccc3[nH]nc(-c4nc5c(N6CCCCC6)cncc5[nH]4)c3n2)cc1OCCN1CCCC1 [Compound 582, 3-(7-(Piperidin-1-yl)-3H-imidazo[4,5-c]pyridin-2-yl)-5-(5-(2-(pyrrolidin-1-yl)ethoxy)pyridin-3-yl)-1H-pyrazolo[4,3-b]pyridine]",,
,1380,"Oc1cncc(-c2ccc3[nH]nc(-c4nc5c(N6CCCCC6)cncc5[nH]4)c3n2)c1 [Compound 585, 5-(3-(7-(Piperidin-1-yl)-3H-imidazo[4,5-c]pyridin-2-yl)-1H-pyrazolo[4,3-b]pyridin-5-yl)pyridin-3-ol]",,
,> 10000,"Cc1cn(-c2cncc3[nH]c(-c4n[nH]c5ccc(-c6cncc(OCCN(C)C)c6)nc45)nc23)cn1 [Compound 599, N,N-Dimethyl-2-((5-(3-(7-(4-methyl-1H-imidazol-1-yl)-3H-imidazo[4,5-c]pyridin-2-yl)-1H-pyrazolo[4,3-b]pyridin-5-yl)pyridin-3-yl)oxy)ethan-1-amine]",,22.5
,> 10000,"CN1CCN(c2cncc3[nH]c(-c4n[nH]c5ccc(-c6cnccn6)nc45)nc23)CC1 [Compound 620, 3-(7-(4-Methylpiperazin-1-yl)-3H-imidazo[4,5-c]pyridin-2-yl)-5-(pyrazin-2-yl)-1H-pyrazolo[4,3-b]pyridine]",,30.6
,> 10000,"O=C(CC1CCNCC1)Nc1cncc(-c2ccc3[nH]nc(-c4nc5c(-c6ccsc6)cncc5[nH]4)c3n2)c1 [Compound 629, 2-(Piperidin-4-yl)-N-(5-(3-(7-(thiophen-3-yl)-3H-imidazo[4,5-c]pyridin-2-yl)-1H-pyrazolo[4,3-b]pyridin-5-yl)pyridin-3-yl)acetamide]",,45.5
,> 10000,"Cc1ncc(-c2ccc3[nH]nc(-c4nc5c(-c6ccoc6)cncc5[nH]4)c3n2)n1C [Compound 641, 5-(1,2-Dimethyl-1H-imidazol-5-yl)-3-(7-(furan-3-yl)-3H-imidazo[4,5-c]pyridin-2-yl)-1H-pyrazolo[4,3-b]pyridine]",,8.9
